These results are taken from patent EP0110955B1, “BRAIN-SPECIFIC DRUG DELIVERY” (UNIVERSITY OF FLORIDA, priority 1982, dated 1983).

Series [1] is described as follows: Concentration of compound 6a in brain and blood after parenteral administration of 5c. In kind it is in vivo, Male Sprague-Dawley rats. The note with it: after administration of 5c, rat. The procedure: The dihydropyridine derivative (5c) was then selected for the in vivo study. A solution in DMSO (dimethylsulfoxide) was injected through the jugular vein to a group of male Sprague-Dawley rats which were then sacrificed at various time intervals; their blood and brains were analyzed for the quaternary percursor of dopamine (6a). The in vivo dopaminergic activities of the selected compounds 5c vs. 6a were then determined.
Male Sprague-Dawley rats of average weight of 150 ± 10g were used. The rats were anesthetized with IM injection of Inovar and the jugular was exposed. Compound 5c was injected intrajugularly in the form of 10% solution in DMSO at a dose of 64.2 mg/kg (equivalent to 50 mg/kg compound 6a). The injection was given at a rate of 24 µl/min using a calibrated infusion pump. […] The weighed brain was homogenized with 0.5 ml of distilled water, 3 ml of acetonitrile was added and the mixture was rehomogenized thoroughly, centrifuged, filtered and then analyzed for compound 6a using the HPLC method. The tubes containing the blood were shaken vigorously, centrifuged, decanted and also analyzed for compound 6a using the HPLC method. Quantitation was done by using a recovery standard curve obtained by introducing a known amount of 6a in either brain homogenate or blood and then treated in the same manner. […]

The nature of series [2]: Enzymatic hydrolytic cleavage and rate of oxidation of compound 5c in human blood (HPLC). It counts as in vitro ADME. The note with it: whole citrated blood, 37°C, pseudo first order, read-out: apparent half-lives for the disappearance. As for the experimental part: (§1) A high pressure liquid chromatography (HPLC) method was developed for the studies of the degradation of the dihydropyridine dopamine derivative. The chromatographic analysis was performed on a component system consisting of a Waters Associate Model 6000A solvent delivery system, Model U6K injector and Model 440 dual channel absorbance detector operated at 254 and 280 nm. A 30 cm x 3.9 mm (internal diameter) reverse phase µBondapak C18 column (Waters Associates), operated at ambient temperature, was used for all separations. The mobile phase used for the separation of the dihydropyridine derivative, its degradation products and oxidation products consisted of 0.005 M solution of 1-heptanesul- fonic acid sodium salt (PIC B-7 Eastman Kodak) in CH3CN; 0.01 M aqueous dibasic ammonium phosphate (2.5:1). A peak was always shown at a retention time of 2.2 min which is believed to be a monodeacylated dihydropyridine derivative, since it eventually did result in 6a.
The freshly collected heparinized blood was obtained at the Civitan Regional Blood Center, Inc. (Gainesville, Florida). The blood was stored in a refrigerator and used the next day. […] When all samples had been collected, they were centrifuged and the supernatants were filtered using Whatman 4 filter paper and analyzed by HPLC.

Series [3] deals with brain-dopamine concentrations. Nature of the series: Changes in brain-dopamine concentrations after intrajugular administration of 5c. In kind it is in vivo. The note with it: 5c administered intrajugularly, some of the rats, others practically none. As for the experimental part: To determine whether dopamine itself was finally released in the brain upon completion of the aforesaid complex delivery process, 5c was administered intrajugularly and changes in brain-dopamine concentrations following that administration were studied. […] It is known that dopamine and its agonists decrease prolactin secretion following their binding to stereospecific receptors located on lactophors in the anterior pituitary (AP) gland [G.P. Mueller, J.W. Simpkins, J. Meites and K.E. Moore, Neuroendocrinology, 20, 121 (1976); W. Wuttke, E. Cassell and J Meites, Endocrinology, 88, 737 (1971); J.A. Clemens, E.B. Smalstig and C.J. Shaar, Acta Endocrinol., 79, 230 (1975)]. This effect is dose- dependent and it can also be observed in vitro, incubating anterior pituitaries with dopamine or its agonists [R.M. MacLeod Ed. L. Martini and W.F. Ganong, Raven Press].

Series [4] can be described thus: Enzymatic hydrolytic cleavage and rate of oxidation of compound 5c in rat brain homogenate (HPLC). It counts as in vitro ADME, Sprague-Dawley rats. The note with it: rat, pH 7.4; 20% brain homogenate, 37°C, pseudo first order; read-out: apparent half-lives for the disappearance. As for the experimental part: as §1
The brain homogenate was prepared by the following method. Five Sprague-Dawley rats were killed by decapitation and the brains were removed, weighed (total weight 9.85 g) and homogenized in 49.3 ml of aqueous 0.11 M phosphate buffer, pH 7.4. The homogenate was centrifuged and the supernatant was used for the test. […] Each supernatant was filtered through two Whatman 1 filter papers and analyzed by HPLC.

Series [5] in a line: Enzymatic hydrolytic cleavage and rate of oxidation of compound 5c in rat liver homogenate (HPLC). In kind it is in vitro ADME, Sprague-Dawley rats. The note with it: rat, pH 7.4; 20% liver homogenate, 37°C, pseudo first order; read-out: apparent half-lives for the disappearance. The procedure:
as §1
The liver homogenate was prepared by the following method. Three Sprague-Dawley rats were killed by decapitation and the livers were removed, weighed and homogenized by tissue homogenizer in 0.11 M aqueous phosphate buffer, pH 7.4, to make 20% liver homogenate. […] When all samples had been collected, they were centrifuged and each supernatant was filtered through Whatman 1 filter paper and analyzed by HPLC.

Series [6] is described as follows: Enzymatic hydrolytic cleavage and rate of oxidation of compound 5c in human plasma (HPLC). In kind it is in vitro ADME. The note with it: 80% plasma, 37°C, pseudo first order, read-out: apparent half-lives for the disappearance. As for the experimental part:
as §1
The freshly collected plasma used was obtained at the Civitan Regional Blood Center, Inc. (Gainesville, Florida) and contained about 80% plasma diluted with anticoagulant citrate phosphate dextrose solution U.S.P. The plasma was stored in a refrigerator and used the next day. […] When all samples had been collected, they were centrifuged and the supernatants were filtered through Whatman 1 filter papers and analyzed to HPLC.

The structures appear in SMILES notation.

For the compound `CN1C=CCC(C(=O)NCCc2ccc(OC(=O)C(C)(C)C)c(OC(=O)C(C)(C)C)c2)=C1` [5c, 1-Methyl-3-(N-[β-(3,4-dipivalyloxyphenyl)-ethyl]}carbamoyl-1,4-dihydropyridine], the “formation of O-methyl metabolites (9, 10) in the brain” value in series [1] is on record as “No formation of O-methyl metabolites (9, 10) could be detected”. The half-life at 900 µM in series [2] came to 18 min; in series [5], 6 min. Besides, in series [3], the “increase in the dopamine concentrations” value is given as “up to threefold increase”. Also, the half-life at 1800 µM in series [4] was found to be 17 min. Further, in series [6], the half-life at 3050 µM was 51 min.
